# From PMC7036548 (Cellular and Molecular Gastroenterology and Hepatology, 2019)
# Experiments:
# DOR-eGFP [1] = biological target: T1, DOR-eGFP (Mus musculus, UniProt P32300); experiment: DOR-eGFP internalization, confocal imaging; details: agonist, 1 μmol/L; blocked by naltrindole
# human MOR (CHO cells) = human MOR (CHO cells) (Homo sapiens, UniProt P35372); experiment: […]GTPγS binding, CHO membranes; format: biochemical; details: 10 μmol/L GDP, pH 7.4, RT; no G protein activation
# DOR-eGFP [2] = biological target: T1, DOR-eGFP; experiment: DOR-eGFP internalization, confocal imaging; details: agonist; control 73.8 ± 2.6%; myenteric neurons of colon
# T1 sequence (P32300 whole entry): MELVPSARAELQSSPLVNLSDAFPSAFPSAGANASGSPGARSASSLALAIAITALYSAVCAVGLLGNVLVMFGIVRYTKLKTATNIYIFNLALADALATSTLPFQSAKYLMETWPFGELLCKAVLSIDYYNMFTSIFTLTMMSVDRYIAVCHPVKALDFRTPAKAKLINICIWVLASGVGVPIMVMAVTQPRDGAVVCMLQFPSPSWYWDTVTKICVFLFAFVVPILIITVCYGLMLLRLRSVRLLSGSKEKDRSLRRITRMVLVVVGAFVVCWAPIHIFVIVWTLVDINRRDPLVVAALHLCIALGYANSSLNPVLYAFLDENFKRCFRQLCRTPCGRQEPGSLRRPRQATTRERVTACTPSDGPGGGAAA
# human MOR (CHO cells), sequence (P35372 whole entry): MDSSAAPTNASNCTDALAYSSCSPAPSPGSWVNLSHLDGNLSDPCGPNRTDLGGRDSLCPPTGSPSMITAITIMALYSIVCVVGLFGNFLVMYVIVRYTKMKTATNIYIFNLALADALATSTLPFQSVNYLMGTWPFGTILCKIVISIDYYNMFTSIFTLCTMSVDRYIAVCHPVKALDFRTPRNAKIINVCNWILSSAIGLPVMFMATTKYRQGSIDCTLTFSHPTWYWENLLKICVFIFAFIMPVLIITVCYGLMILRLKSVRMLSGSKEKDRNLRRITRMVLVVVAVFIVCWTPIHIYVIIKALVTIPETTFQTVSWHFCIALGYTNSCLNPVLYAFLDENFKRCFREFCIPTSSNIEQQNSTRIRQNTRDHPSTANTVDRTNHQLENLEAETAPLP
SMILES,"DOR-eGFP internalization, confocal imaging (DOR-eGFP [1])","[35S]GTPγS binding, CHO membranes (human MOR (CHO cells))",% cell surface DOR-eGFP at 1 μmol/L (DOR-eGFP [2]) [%]
CCOC(=O)C1(CCc2ccccc2)CCN(Cc2ccc(NC(C)=O)cc2)CC1 [CYM51010],CYM51010 promoted robust internalization of DOR-eGFP in both myenteric and submucosal neurons,increase in G protein activation only in DOR expressing CHO cells,
C=CCN1C[C@H](C)N([C@H](c2ccc(C(=O)N(CC)CC)cc2)c2cccc(OC)c2)C[C@H]1C [SNC80],,,41.9 ± 2.9
